We go through 39 compounds from patent US20140315933A1, “CHEMICAL COMPOUNDS” (Pfizer Limited, priority 2013, published 2014).

Where a name gives a salt, the structure may show the parent alone.

The assay deals with T1, URAT-1 transporter (Homo sapiens, UniProt Q96S37).
T1 construct: expressed in transfected cells
T1 sequence (Q96S37 with tags, fused parts or gaps): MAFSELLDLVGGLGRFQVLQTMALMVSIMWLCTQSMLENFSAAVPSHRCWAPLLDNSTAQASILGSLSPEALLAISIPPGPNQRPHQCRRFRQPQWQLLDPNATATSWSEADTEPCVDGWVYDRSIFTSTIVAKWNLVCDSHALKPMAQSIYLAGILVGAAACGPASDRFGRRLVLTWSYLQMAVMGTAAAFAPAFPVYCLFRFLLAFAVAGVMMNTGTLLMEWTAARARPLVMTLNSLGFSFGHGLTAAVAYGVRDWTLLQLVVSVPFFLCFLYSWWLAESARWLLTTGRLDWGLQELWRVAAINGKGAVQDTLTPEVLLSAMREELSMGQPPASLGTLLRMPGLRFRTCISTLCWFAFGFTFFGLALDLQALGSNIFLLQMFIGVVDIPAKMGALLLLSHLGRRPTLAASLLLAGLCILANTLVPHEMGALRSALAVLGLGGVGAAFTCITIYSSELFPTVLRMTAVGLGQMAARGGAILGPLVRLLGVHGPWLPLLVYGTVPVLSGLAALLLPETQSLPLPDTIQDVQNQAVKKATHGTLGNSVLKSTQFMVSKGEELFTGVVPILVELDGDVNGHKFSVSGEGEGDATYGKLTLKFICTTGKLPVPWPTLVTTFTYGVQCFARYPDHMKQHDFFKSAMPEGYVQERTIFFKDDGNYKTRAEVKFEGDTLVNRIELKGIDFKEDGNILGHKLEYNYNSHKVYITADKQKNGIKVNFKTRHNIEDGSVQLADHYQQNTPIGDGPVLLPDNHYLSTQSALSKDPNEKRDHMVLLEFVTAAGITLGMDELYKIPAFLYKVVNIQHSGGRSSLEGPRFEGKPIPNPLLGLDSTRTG
In words: URAT-1 inhibitor activity: [14C]-uric acid uptake into CHO-URAT1(L)GFP#8 (CHO#8) cells, scintillation proximity. The assay is classed as cell-based. The procedure, abridged: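 Scintillation proximity read-out of 30 nM (final) [14C]-uric acid uptake over three hours at room temperature in chloride-free HEPES buffer pH 7.4. Compounds, 0–10 μM final with 0.25% DMSO, were added 15 minutes before substrate; cells were a clonal CHO line with human URAT1(L)-eGFP, preincubated 1 hour in chloride buffer.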
A general note: Scintillation proximity formats need no separation of bound from free tracer.
One may read the IC50 as the point on the concentration scale where inhibition reaches its midpoint. Low values mean greater potency, high ones weaker potency. Consider `N#Cc1cc(Oc2ccc(S(=O)(=O)Nc3ncc(Cl)s3)cc2C#N)ccc1F` [compound 193], for which the midpoint of inhibition, the IC50, lay at 0.834 µM.
As for `N#Cc1cc(Oc2ccc(S(=O)(=O)Nc3cscn3)c(F)c2)ccc1F` [compound 233], the figure is over 10 µM.
With `CC(C)c1ccccc1Oc1ccc(S(=O)(=O)Nc2ncc(F)s2)cc1C#N` [Example 97, 3-cyano-N-(5-fluoro-1,3-thiazol-2-yl)-4-[2-(propan-2-yl)phenoxy]benzenesulfonamide], the midpoint of inhibition, the IC50, lay at 1.17 µM.
Take `N#Cc1cc(S(=O)(=O)Nc2ncc(F)s2)ccc1Oc1cc(F)cc(F)c1` [Example 106, 3-cyano-4-(3,5-difluorophenoxy)-N-(5-fluoro-1,3-thiazol-2-yl)benzenesulfonamide]: the IC50 is over 1.34 µM.
As for `N#Cc1cc(S(=O)(=O)Nc2ncc(F)s2)ccc1Oc1ccc(Cl)cc1C(F)(F)F` [Example 92, 4-[4-chloro-2-(trifluoromethyl)phenoxy]-3-cyano-N-(5-fluoro-1,3-thiazol-2-yl)benzenesulfonamide], the figure is over 7.86 µM; as for `O=S(=O)(Nc1cscn1)c1ccc(Oc2ccc(F)c(F)c2)cc1F` [compound 224], over 10 µM; as for `O=S(=O)(Nc1nncs1)c1ccc(Oc2ccc(F)c(F)c2)c(Cl)c1` [compound 204], 0.317 µM.
As for `COc1cc(Cl)cc(Cl)c1Oc1cc(F)c(S(=O)(=O)Nc2nncs2)cc1Cl` [Example 157, 5-chloro-4-(2,4-dichloro-6-methoxyphenoxy)-2-fluoro-N-(1,3,4-thiadiazol-2-yl)benzenesulfonamide diethylamine salt], inhibition was half-maximal at 2.88 µM (IC50).
The value for `O=S(=O)(Nc1nccs1)c1ccc(Oc2ncncc2Br)c(F)c1` [Example 83, 4-[(5-bromopyrimidin-4-yl)oxy]-3-fluoro-N-(1,3-thiazol-2-yl)benzenesulfonamide] was 1.14 µM; that for `N#Cc1cc(S(=O)(=O)Nc2nccs2)ccc1Oc1ccc(Cl)cc1OC(F)(F)F` [compound 162] was 0.565 µM.
The compound `N#Cc1cc(S(=O)(=O)Nc2ncc(F)s2)ccc1Oc1ccc(CCCO)cc1` [Example 147, 3-cyano-N-(5-fluoro-1,3-thiazol-2-yl)-4-[4-(3-hydroxypropyl)phenoxy]benzenesulfonamide] came in with an IC50 of over 10 µM.
As for `O=S(=O)(Nc1ncns1)c1cc(F)c(Oc2ccc(F)c(F)c2)cc1F` [compound 196], the figure is 1.58 µM; as for `COc1c(F)ccc(Oc2ccc(S(=O)(=O)Nc3ncns3)cc2C#N)c1C` [compound 264], 1.65 µM.
The value for `N#Cc1cc(S(=O)(=O)Nc2ncc(F)s2)ccc1Oc1cc(C(F)(F)F)ccc1F` [Example 134, 3-cyano-N-(5-fluoro-1,3-thiazol-2-yl)-4-[2-fluoro-5-(trifluoromethyl)phenoxy]benzenesulfonamide] was 0.718 µM; that for `N#Cc1ccc(Oc2ccc(S(=O)(=O)Nc3ncns3)cc2Cl)cc1` [Example 64, 3-chloro-4-(4-cyanophenoxy)-N-(1,2,4-thiadiazol-5-yl)benzenesulfonamide diethylamine salt] was 8.01 µM.
As for `COc1ccc(F)c(Oc2ccc(S(=O)(=O)Nc3ncns3)cc2C#N)c1` [compound 287], the figure is 1.44 µM.
Take `COc1ccc(Oc2ccc(S(=O)(=O)Nc3ncns3)cc2C#N)cc1Cl` [compound 268]: inhibition was half-maximal at 1.47 µM (IC50).
With `COc1ccc(Oc2ccc(S(=O)(=O)Nc3nccs3)cc2C#N)cn1` [compound 173], the IC50 is over 3.66 µM.
As for `CC(C)Oc1ccccc1Oc1cc(F)c(S(=O)(=O)Nc2nncs2)cc1Cl` [compound 325], the figure is 2 µM.
The value for `N#Cc1ccc(OC(F)F)c(Oc2cc(F)c(S(=O)(=O)Nc3ncns3)cc2Cl)c1` [Example 156, 5-chloro-4-[5-cyano-2-(difluoromethoxy)phenoxy]-2-fluoro-N-(1,2,4-thiadiazol-5-yl)benzenesulfonamide diethylamine salt] was 3.43 µM.
The value for `N#Cc1cc(S(=O)(=O)Nc2ncns2)ccc1Oc1ccc(Cl)cc1OC1CCC1` [Example 30, 4-[4-chloro-2-(cyclobutyloxy)phenoxy]-3-cyano-N-(1,2,4-thiadiazol-5-yl)benzenesulfonamide diethylamine salt] was 0.609 µM; that for `CCSc1ncccc1Oc1cc(F)c(S(=O)(=O)Nc2nncs2)cc1Cl` [compound 304] was 1.01 µM.
For the compound `Cc1c(Oc2cc(F)c(S(=O)(=O)Nc3nncs3)cc2Cl)ccc(F)c1F` [compound 318, 5-chloro-4-(3,4-difluoro-2-methylphenoxy)-2-fluoro-N-(1,3,4-thiadiazol-2-yl)benzenesulfonamide], the IC50 was determined as 0.145 µM.
Compound `CC(C)c1cc(C#N)cc(Oc2ccc(S(=O)(=O)Nc3nccs3)cc2C#N)c1` [compound 174] registered a half-maximal inhibitory concentration (IC50) of 0.237 µM.
The value for `Cn1ccc(NS(=O)(=O)c2ccc(Oc3ccc(C#N)c(Cl)c3)c(C#N)c2)n1` [Example 4, 4-(3-chloro-4-cyanophenoxy)-3-cyano-N-(1-methyl-1H-pyrazol-3-yl)benzenesulfonamide diethylamine salt] was 3.36 µM.
As for `N#Cc1cc(Oc2ccc(S(=O)(=O)Nc3nncs3)cc2C#N)ccc1F` [compound 199], the half-maximal inhibitory concentration (IC50) is over 6.37 µM.
Compound `N#Cc1cc(S(=O)(=O)Nc2ncns2)ccc1Oc1ccc(F)cc1Cl` [Example 46, 4-(2-chloro-4-fluorophenoxy)-3-cyano-N-(1,2,4-thiadiazol-5-yl)benzenesulfonamide] came in with a half-maximal inhibitory concentration (IC50) of 0.504 µM.
Take `COc1ccc(C)cc1Oc1ccc(S(=O)(=O)Nc2ncns2)cc1C#N` [compound 284]: the half-inhibitory concentration (IC50) stood at 2.52 µM.
As for `CC(C)Oc1ccc(F)cc1Oc1ccc(S(=O)(=O)Nc2ncns2)cc1C#N` [compound 262], the figure is 3.58 µM.
The value for `CCc1cc(Oc2ccc(S(=O)(=O)Nc3ncc(F)s3)cc2C#N)ccc1Cl` [Example 142, 4-(4-chloro-3-ethylphenoxy)-3-cyano-N-(5-fluoro-1,3-thiazol-2-yl)benzenesulfonamide] was 0.54 µM; that for `N#Cc1cc(S(=O)(=O)Nc2ncns2)ccc1Oc1ccccc1F` [Example 36, 3-cyano-4-(2-fluorophenoxy)-N-(1,2,4-thiadiazol-5-yl)benzenesulfonamide] was 1.94 µM.
The compound `N#Cc1cc(S(=O)(=O)Nc2ncns2)ccc1Oc1cccnc1` [compound 253, trifluoroacetic acid salt] gave a half-inhibitory concentration (IC50) of 2.13 µM.
For the compound `CC(C)c1cccc(Oc2cc(F)c(S(=O)(=O)Nc3ncc(F)s3)cc2F)c1` [Example 68, 2,5-difluoro-N-(5-fluoro-1,3-thiazol-2-yl)-4-[3-(propan-2-yl)phenoxy]benzenesulfonamide], the IC50 was over 8.47 µM.
The value for `N#Cc1cc(S(=O)(=O)Nc2nccs2)ccc1Oc1ccc(Br)c(F)c1` [compound 168] was 0.161 µM; that for `CCc1cccc(Oc2ccc(S(=O)(=O)Nc3ncc(F)s3)cc2C#N)c1` [Example 99, 3-cyano-4-(3-ethylphenoxy)-N-(5-fluoro-1,3-thiazol-2-yl)benzenesulfonamide] was 1.63 µM; that for `N#Cc1cc(S(=O)(=O)Nc2ncc(Cl)s2)ccc1Oc1cccc(C(F)(F)F)c1` [Example 89, N-(5-chloro-1,3-thiazol-2-yl)-3-cyano-4-[3-(trifluoromethyl)phenoxy]benzenesulfonamide] was 2.83 µM.
`Cc1cc(S(=O)(=O)Nc2cscn2)c(F)cc1Oc1ccc(F)c(F)c1` [compound 223] gave a 50% inhibitory concentration (IC50) of over 10 µM.
The value for `O=S(=O)(Nc1nccs1)c1ccc(Oc2ccc(Cl)cc2C(F)(F)F)c(F)c1` [Example 71, 4-[4-chloro-2-(trifluoromethyl)phenoxy]-3-fluoro-N-(1,3-thiazol-2-yl)benzenesulfonamide] was over 10 µM; that for `N#Cc1cc(S(=O)(=O)Nc2nccs2)ccc1Oc1ccccc1Br` [compound 182] was 1.33 µM.
